Reference: patent US11149018B2, “Substituted N-arylethyl-2-aminoquinoline-4-carboxamides and use thereof” (Bayer Aktiengesellschaft, priority 2017, dated 2021)

molecular target: FP receptor (Homo sapiens (Human), UniProt P43088); experiment: In vitro test of inhibition of human FP receptor activity (PGF2α-induced calcium flux in FP-expressing CHEM1 cells); format: cell-based; details: PGF2α 2 nM, some mean values of multiple determinations
Method in brief: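 FP antagonism in FP-expressing CHEM1 cells loaded with Fluo-8. Compound preincubated 10 min at 37° C, then receptor stimulated with 2 nM (final) PGF2α in calcium-free Tyrode with 2 mM CaCl2.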

Chain of FP receptor (P43088 whole entry): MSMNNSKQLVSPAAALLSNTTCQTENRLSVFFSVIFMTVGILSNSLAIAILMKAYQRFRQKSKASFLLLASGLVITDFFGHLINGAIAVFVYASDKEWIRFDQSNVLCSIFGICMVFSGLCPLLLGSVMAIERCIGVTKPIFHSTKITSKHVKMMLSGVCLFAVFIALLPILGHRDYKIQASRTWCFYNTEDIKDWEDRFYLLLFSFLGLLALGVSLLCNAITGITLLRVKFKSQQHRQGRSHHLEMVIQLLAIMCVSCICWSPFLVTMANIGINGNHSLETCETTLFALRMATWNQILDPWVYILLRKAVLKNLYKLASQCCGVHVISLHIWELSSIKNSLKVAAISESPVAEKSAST

Structure (SMILES) | IC50 [nM]
Cc1c(N2CCCCC2)nc2ccc(Br)cc2c1C(=O)NCC(CCC(=O)O)c1cccc(F)c1Cl (racemic) [Example 141, (+/−)-5-({[6-Bromo-3-methyl-2-(piperidin-1-yl)quinolin-4-yl]carbonyl}amino)-4-(2-chloro-3-fluorophenyl)pentanoic acid] | 5.8
Cc1ccc(F)cc1C(CCC(=O)O)CNC(=O)c1c(C)c(N2CCCCC2)nc2ccc(Br)cc12 (single isomer, unassigned; (+)) [Example 149, (+)-5-({[6-Bromo-3-methyl-2-(piperidin-1-yl)quinolin-4-yl]carbonyl}amino)-4-(5-fluoro-2-methylphenyl)pentanoic acid] | 13
Cc1c(N2CCCC2)nc2ccc(Br)cc2c1C(=O)NCC(CCC(=O)O)c1ccccc1C(F)(F)F (single isomer, unassigned; (+)) [Example 115, (+)-5-({[6-Bromo-3-methyl-2-(pyrrolidin-1-yl)quinolin-4-yl]carbonyl}amino)-4-[2-(trifluoromethyl)phenyl]pentanoic acid] | 29
Cc1c(N2CCCCCC2)nc2ccc(Br)cc2c1C(=O)NCC(CCC(=O)O)c1ccccc1C(F)(F)F (single isomer, unassigned; (-)) [Example 121, (−)-5-({[2-(Azepan-1-yl)-6-bromo-3-methylquinolin-4-yl]carbonyl}amino)-4-[2-(trifluoromethyl)phenyl]pentanoic acid] | 4.1
[2H]C1([2H])N(c2nc3ccc(Br)cc3c(C(=O)NCC(CCC(=O)O)c3ccccc3C(F)(F)F)c2C)C([2H])([2H])C([2H])([2H])C1([2H])[2H] (single isomer, unassigned; (-)) [Example 277, (−)-5-[({6-Bromo-3-methyl-2-[(^2H8)pyrrolidin-1-yl]quinolin-4-yl}carbonyl)amino]-4-[2-(trifluoromethyl)phenyl]pentanoic acid] | 34
Cc1c(N2CCC(F)(F)CC2)nc2ccc(Br)cc2c1C(=O)NCC(CCC(=O)O)c1ccccc1Cl (racemic) [Example 28, (+/−)-5-({[6-Bromo-2-(4,4-difluoropiperidin-1-yl)-3-methylquinolin-4-yl]carbonyl}amino)-4-(2-chlorophenyl)pentanoic acid] | 31
Cc1c(N2CCCCC2)nc2ccc(Br)cc2c1C(=O)NCC(CCC(=O)O)c1ccccc1C(F)(F)F (racemic) [Example 111, (+/−)-5-({[6-Bromo-3-methyl-2-(piperidin-1-yl)quinolin-4-yl]carbonyl}amino)-4-[2-(trifluoromethyl)phenyl]pentanoic acid] | 6.4
Cc1c(N2CC3CCC(C3)C2)nc2ccc(Br)cc2c1C(=O)NCC(CCC(=O)O)c1ccccc1Cl (racemic) [Example 74, (+/−)-5-[({2-[3-Azabicyclo[3.2.1]oct-3-yl]-6-bromo-3-methylquinolin-4-yl}carbonyl)amino]-4-(2-chlorophenyl)pentanoic acid] | 170
Cc1c(N2CCCC(F)C2)nc2ccc(Br)cc2c1C(=O)NCC(CCC(=O)O)c1ccccc1C(F)(F)F (single isomer, unassigned; (+)) [Example 190, (+)-5-[({6-Bromo-2-[3-fluoropiperidin-1-yl]-3-methylquinolin-4-yl}carbonyl)amino]-4-[2-(trifluoromethyl)phenyl]pentanoic acid] | 11
Cc1c(N2CCCC(C)(C)C2)nc2ccc(Br)cc2c1C(=O)NCC(CCC(=O)O)c1ccccc1Cl (single isomer, unassigned; (+)) [Example 44, (+)-5-({[6-Bromo-2-(3,3-dimethylpiperidin-1-yl)-3-methylquinolin-4-yl]carbonyl}amino)-4-(2-chlorophenyl)pentanoic acid] | 120
Cc1c(N2CCCC(C(F)F)C2)nc2ccc(Br)cc2c1C(=O)NCC(CCC(=O)O)c1ccccc1Cl (stereo not drawn) [Example 64, 5-[({6-Bromo-2-[3-(difluoromethyl)piperidin-1-yl]-3-methylquinolin-4-yl}carbonyl)amino]-4-(2-chlorophenyl)pentanoic acid] | 9.8

Further molecules by falling IC50, results first:

IC50 [nM] | Structure (SMILES)
390 | COC1CN(c2nc3ccc(Br)cc3c(C(=O)NCC(CCC(=O)O)c3ccccc3Cl)c2C)C1 (racemic) [Example 92, (+/−)-5-({[6-Bromo-2-(3-methoxyazetidin-1-yl)-3-methylquinolin-4-yl]carbonyl}amino)-4-(2-chlorophenyl)pentanoic acid]
70 | Cc1c(N2CCCO2)nc2ccc(Br)cc2c1C(=O)NCC(CCC(=O)O)c1cc(F)ccc1Cl (racemic) [Example 14, (+/−)-5-({[6-Bromo-3-methyl-2-(1,2-oxazolidin-2-yl)quinolin-4-yl]carbonyl}amino)-4-(2-chloro-5-fluorophenyl)pentanoic acid]
22 | Cc1ccc(F)cc1C(CCC(=O)O)CNC(=O)c1c(C)c(N2CCCC(F)(F)C2)nc2ccc(Br)cc12 (racemic) [Example 150, (+/−)-5-({[6-Bromo-2-(3,3-difluoropiperidin-1-yl)-3-methylquinolin-4-yl]carbonyl}amino)-4-(5-fluoro-2-methylphenyl)pentanoic acid]
11 | COc1ccccc1C(CCC(=O)O)CNC(=O)c1c(C)c(N2CCCCC2)nc2ccc(Br)cc12 (single isomer, unassigned; (-)) [Example 236, (−)-5-({[6-Bromo-3-methyl-2-(piperidin-1-yl)quinolin-4-yl]carbonyl}amino)-4-(2-methoxyphenyl)pentanoic acid]
8.6 | Cc1c(N2CCCC(F)C2)nc2ccc(Br)cc2c1C(=O)NCC(CCC(=O)O)c1ccccc1Cl (single isomer, unassigned; (-)) [Example 186, (−)-5-[({6-Bromo-2-[3-fluoropiperidin-1-yl]-3-methylquinolin-4-yl}carbonyl)amino]-4-(2-chlorophenyl)pentanoic acid]
6.7 | Cc1c(N2CCCCCC2)nc2ccc(Br)cc2c1C(=O)NCC(CCC(=O)O)c1ccccc1C(F)(F)F (single isomer, unassigned; (+)) [Example 122, (+)-5-({[2-(Azepan-1-yl)-6-bromo-3-methylquinolin-4-yl]carbonyl}amino)-4-[2-(trifluoromethyl)phenyl]pentanoic acid]
3.9 | Cc1c(N2CCC[C@H]2C)nc2ccc(Br)cc2c1C(=O)NCC(CCC(=O)O)c1ccccc1Cl (single isomer, unassigned; (+)) [Example 82]
1.5 | Cc1c(N2CCCCC2)nc2ccc(Br)cc2c1C(=O)NCC(CCC(=O)O)c1c(Cl)ccc(F)c1F (single isomer, unassigned; (-)) [Example 145, (−)-5-({[6-Bromo-3-methyl-2-(piperidin-1-yl)quinolin-4-yl]carbonyl}amino)-4-(6-chloro-2,3-difluorophenyl)pentanoic acid]
1.4 | COc1ccccc1C(CCC(=O)O)CNC(=O)c1c(C)c(N2CCCCC2)nc2ccc(Br)cc12 (single isomer, unassigned; (+)) [Example 235, (+)-5-({[6-Bromo-3-methyl-2-(piperidin-1-yl)quinolin-4-yl]carbonyl}amino)-4-(2-methoxyphenyl)pentanoic acid]
1.4 | Cc1c(N2CCCCC2)nc2ccc(Br)cc2c1C(=O)NCC(CCC(=O)O)c1c(F)cccc1C(F)(F)F (single isomer, unassigned; (-)) [Example 161, (−)-5-({[6-Bromo-3-methyl-2-(piperidin-1-yl)quinolin-4-yl]carbonyl}amino)-4-[2-fluoro-6-(trifluoromethyl)phenyl]pentanoic acid]
